Patent publication US9840509B2, “Heterocyclic compounds” (CADILA HEALTHCARE LIMITED, priority 2014, dated 2017)

Experiments:
CYP 1A2 = molecular target: T1, CYP 1A2 (Homo sapiens, UniProt P05177); experiment: CYP inhibition in human liver microsomes, 1A2; format: in vitro ADME; details: pH 7.4, @ 10 μM concn
T1 construct: from tissue; host or cells: human liver microsomes
T1 sequence (P05177 1-516): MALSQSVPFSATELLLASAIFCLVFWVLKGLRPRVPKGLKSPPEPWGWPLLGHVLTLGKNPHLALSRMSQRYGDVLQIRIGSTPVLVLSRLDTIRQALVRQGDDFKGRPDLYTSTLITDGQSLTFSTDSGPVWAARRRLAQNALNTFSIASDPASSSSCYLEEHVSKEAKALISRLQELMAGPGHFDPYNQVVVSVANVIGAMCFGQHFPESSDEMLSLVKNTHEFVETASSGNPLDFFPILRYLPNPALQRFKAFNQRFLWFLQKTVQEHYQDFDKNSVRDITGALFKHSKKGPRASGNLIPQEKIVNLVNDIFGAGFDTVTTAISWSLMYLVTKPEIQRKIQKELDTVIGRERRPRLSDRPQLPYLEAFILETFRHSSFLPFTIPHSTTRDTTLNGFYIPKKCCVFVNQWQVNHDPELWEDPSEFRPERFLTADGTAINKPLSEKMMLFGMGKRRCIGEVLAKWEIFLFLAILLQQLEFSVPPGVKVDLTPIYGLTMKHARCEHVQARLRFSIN
Description: (§1) CYP Inhibition Studies: CYP inhibition studies were performed with test compounds, at two concentrations ([…] and 10 μM), using human liver microsomes (Yao, M., Zhu, M., Sinz, M. W., Zhang, H., Humphreys, W. F., Rodrigues, A. D and Dai, R., Journal of Pharmaceutical and Biomedical Analysis, 2007, 44, 211-223; Walsky, R. L and Obach, R. S., Drug Metab. Dispos., 2004, 32, 647-660). Human liver microsomes were mixed with 100 mM phosphate buffer (pH 7.4) and probe substrate and warmed to […] in microcentrifuge tubes. Aliquots of this mixture (499 μL) were transferred to each pre-labeled microcentrifuge tubes, followed by addition of the 1 μL of inhibitors (test compound/CYP-specific positive control inhibitor) or control solvent (DMSO). Aliquots of this mixture (90 μL) were transferred to each pre-labeled microcentrifuge tubes in duplicate. Final solvent concentrations were 0.2% (v/v) or less. Incubations were commenced with the addition of 10 μL NADPH stock (assay concentration, 1 mM) to a final incubation volume of 100 μL and incubated in shaking water bath (at 37° C. and 100 rpm), for the period defined in Tables 1. Incubations were terminated by addition of 400 μL of termination solvent (CH3CN) containing internal standard. The terminated samples were vortex-mixed, centrifuged at 10000 rpm for 5 min and supernatant transferred into HPLC vials for LC-MS/MS analysis to monitor metabolites produced by marker CYP reactions. […] Animals

CYP 2C8 = molecular target: T2, CYP 2C8 (Homo sapiens, UniProt P10632); experiment: CYP inhibition in human liver microsomes, 2C8; format: in vitro ADME; details: pH 7.4, @ 10 μM concn
T2 construct: from tissue; host or cells: human liver microsomes
T2 sequence (P10632 1-490): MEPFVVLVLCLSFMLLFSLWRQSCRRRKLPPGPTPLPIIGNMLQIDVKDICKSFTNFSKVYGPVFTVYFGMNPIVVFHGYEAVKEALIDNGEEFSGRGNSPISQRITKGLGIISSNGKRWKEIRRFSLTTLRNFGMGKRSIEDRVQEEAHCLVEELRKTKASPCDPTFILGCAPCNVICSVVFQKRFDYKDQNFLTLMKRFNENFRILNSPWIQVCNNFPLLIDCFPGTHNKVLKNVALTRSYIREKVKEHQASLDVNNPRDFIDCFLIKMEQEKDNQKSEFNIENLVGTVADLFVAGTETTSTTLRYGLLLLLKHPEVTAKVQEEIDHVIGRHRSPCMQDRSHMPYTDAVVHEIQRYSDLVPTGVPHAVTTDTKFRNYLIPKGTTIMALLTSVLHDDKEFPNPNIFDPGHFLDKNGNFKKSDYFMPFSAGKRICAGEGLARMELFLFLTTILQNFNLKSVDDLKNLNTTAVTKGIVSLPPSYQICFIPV
Description: as §1

CYP 2D6 = molecular target: T3, CYP 2D6 (Homo sapiens, UniProt P10635); experiment: CYP inhibition in human liver microsomes, 2D6; format: in vitro ADME; details: pH 7.4, @ 10 μM concn
T3 construct: from tissue; host or cells: human liver microsomes
T3 sequence (P10635 whole entry): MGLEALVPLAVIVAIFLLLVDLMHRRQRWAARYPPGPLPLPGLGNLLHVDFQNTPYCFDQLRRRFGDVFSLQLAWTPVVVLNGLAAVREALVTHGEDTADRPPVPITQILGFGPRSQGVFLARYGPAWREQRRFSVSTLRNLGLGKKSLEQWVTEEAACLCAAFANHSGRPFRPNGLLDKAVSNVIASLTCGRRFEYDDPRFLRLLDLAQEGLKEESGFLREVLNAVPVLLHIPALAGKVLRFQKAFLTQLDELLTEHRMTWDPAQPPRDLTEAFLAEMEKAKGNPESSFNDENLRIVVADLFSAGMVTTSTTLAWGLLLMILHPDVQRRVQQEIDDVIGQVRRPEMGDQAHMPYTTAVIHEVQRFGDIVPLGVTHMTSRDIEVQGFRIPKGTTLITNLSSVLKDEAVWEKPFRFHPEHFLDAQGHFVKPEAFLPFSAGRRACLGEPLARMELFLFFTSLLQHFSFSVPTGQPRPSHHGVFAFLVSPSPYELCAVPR
Description: as §1

CYP 3A4 = molecular target: T4, CYP 3A4 (Homo sapiens, UniProt P08684); experiment: CYP inhibition in human liver microsomes, 3A4; format: in vitro ADME; details: pH 7.4, @ 10 μM concn
T4 construct: from tissue; host or cells: human liver microsomes
T4 sequence (P08684 whole entry): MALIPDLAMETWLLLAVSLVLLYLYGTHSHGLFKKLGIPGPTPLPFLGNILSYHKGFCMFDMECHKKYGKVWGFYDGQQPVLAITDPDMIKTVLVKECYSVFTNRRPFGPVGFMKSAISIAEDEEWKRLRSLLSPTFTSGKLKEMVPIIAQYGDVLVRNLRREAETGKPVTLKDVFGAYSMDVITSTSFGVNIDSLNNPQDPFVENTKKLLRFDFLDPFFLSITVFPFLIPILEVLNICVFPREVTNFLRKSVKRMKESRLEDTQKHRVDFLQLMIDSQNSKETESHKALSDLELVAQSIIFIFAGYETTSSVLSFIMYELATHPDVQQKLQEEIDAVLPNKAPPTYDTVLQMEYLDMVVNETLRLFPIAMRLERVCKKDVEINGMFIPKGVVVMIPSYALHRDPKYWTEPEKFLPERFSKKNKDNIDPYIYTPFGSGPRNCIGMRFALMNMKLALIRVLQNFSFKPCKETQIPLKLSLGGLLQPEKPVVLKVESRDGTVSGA
Description: as §1

[1] = molecular target: T5, recombinant purified human BTK (Homo sapiens, UniProt Q06187); experiment: In vitro BTK kinase assay on ADP Glo platform; format: biochemical; details: 2 hr room temperature, read-out: In-vitro BTK inhibitory activity: IC50
T5 construct: purchased SignalChem, USA
T5 sequence (Q06187 whole entry): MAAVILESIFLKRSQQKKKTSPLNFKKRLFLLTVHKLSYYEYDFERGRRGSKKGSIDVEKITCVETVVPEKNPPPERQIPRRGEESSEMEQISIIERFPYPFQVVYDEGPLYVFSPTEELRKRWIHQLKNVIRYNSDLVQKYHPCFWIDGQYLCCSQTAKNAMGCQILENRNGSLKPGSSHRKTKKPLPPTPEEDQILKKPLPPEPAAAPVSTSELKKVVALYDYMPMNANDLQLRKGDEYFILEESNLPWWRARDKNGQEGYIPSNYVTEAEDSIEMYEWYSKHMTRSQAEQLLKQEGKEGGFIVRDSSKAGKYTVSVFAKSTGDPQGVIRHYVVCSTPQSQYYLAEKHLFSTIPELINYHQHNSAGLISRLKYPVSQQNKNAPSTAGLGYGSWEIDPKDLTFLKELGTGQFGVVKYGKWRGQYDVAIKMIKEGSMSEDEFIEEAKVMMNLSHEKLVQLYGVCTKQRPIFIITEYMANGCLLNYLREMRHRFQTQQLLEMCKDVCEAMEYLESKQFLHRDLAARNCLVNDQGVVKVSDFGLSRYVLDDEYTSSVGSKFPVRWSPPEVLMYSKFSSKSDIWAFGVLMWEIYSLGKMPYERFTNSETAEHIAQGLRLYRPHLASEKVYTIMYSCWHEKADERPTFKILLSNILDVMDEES
Description: Testing of Compounds of the Invention Biological Studies: In vitro BTK Inhibitory Activity Assay:
In vitro BTK inhibitory activity of test compounds were screened using BTK kinase assay on ADP Glo platform (Li, H., Totoritis, R. D., Lor, L. A., Schwartz, B., Caprioli, P., Jurewicz, A. J and Zhang, G., Assay Drug Dev. Technol., 2009, 7(6), 598-605). Briefly, fixed amount of recombinant purified human BTK (3 ng/reaction from SignalChem, USA) were incubated with increasing concentration of test compounds, in 1× kinase reaction buffer (40 mM Tris-Cl, pH7.5, 20 mM MgCl2, 2 mM MnCl2, 0.1 mg/ml BSA and 50 μM DTT). Enzymatic reaction was initiated by adding a substrate cocktail containing 50 µM of ATP (final concentration) and […] of polyGln4Tyr1 (Signal Chem) in total 25 μl of reaction, in round bottom white 96 well plate. The reaction mixture was incubated at room temperature for 2 hr. After 2 hr of incubation, 10 μl of the reaction mix was mixed with […] of ADP Glo reagent, in another round bottom white 96 well plate and incubated at room temperature for 40 min. This was followed by addition of kinase detection reagent (20 μl per reaction) and incubation at room temperature for 30 min. Finally, plate was read for luminescence at an integration time of 500 millisecond per well. Data were plotted taking Enzyme with no inhibitor set as the 100% kinase activity and for dose response curve, % Kinase activity was plotted against conc on Log scale and IC50 was determined by non linear curve fitting method using GraphPad Prism software 6. The in vitro BTK inhibitory activity (IC50) for representative compounds are listed in […]

CYP 2C19 = molecular target: T6, CYP 2C19 (Homo sapiens, UniProt P33261); experiment: CYP inhibition in human liver microsomes, 2C19; format: in vitro ADME; details: pH 7.4, @ 10 μM concn
T6 construct: from tissue; host or cells: human liver microsomes
T6 sequence (P33261 whole entry): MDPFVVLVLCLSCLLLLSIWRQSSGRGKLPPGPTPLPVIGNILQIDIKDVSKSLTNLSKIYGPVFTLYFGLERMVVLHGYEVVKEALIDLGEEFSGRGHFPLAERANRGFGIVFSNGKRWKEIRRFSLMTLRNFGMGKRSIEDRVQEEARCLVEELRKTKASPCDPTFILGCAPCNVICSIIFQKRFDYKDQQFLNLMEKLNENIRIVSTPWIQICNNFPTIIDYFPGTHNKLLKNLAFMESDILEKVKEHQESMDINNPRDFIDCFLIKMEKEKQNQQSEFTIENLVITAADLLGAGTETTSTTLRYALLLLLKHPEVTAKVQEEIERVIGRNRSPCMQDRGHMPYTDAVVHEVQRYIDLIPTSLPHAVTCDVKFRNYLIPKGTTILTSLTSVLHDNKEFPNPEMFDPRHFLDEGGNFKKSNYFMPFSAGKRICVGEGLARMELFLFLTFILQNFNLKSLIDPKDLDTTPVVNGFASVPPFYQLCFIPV
Description: as §1

CYP 2C9 = molecular target: T7, CYP 2C9 (Homo sapiens, UniProt P11712); experiment: CYP inhibition in human liver microsomes, 2C9; format: in vitro ADME; details: pH 7.4, @ 10 μM concn
T7 construct: from tissue; host or cells: human liver microsomes
T7 sequence (P11712 whole entry): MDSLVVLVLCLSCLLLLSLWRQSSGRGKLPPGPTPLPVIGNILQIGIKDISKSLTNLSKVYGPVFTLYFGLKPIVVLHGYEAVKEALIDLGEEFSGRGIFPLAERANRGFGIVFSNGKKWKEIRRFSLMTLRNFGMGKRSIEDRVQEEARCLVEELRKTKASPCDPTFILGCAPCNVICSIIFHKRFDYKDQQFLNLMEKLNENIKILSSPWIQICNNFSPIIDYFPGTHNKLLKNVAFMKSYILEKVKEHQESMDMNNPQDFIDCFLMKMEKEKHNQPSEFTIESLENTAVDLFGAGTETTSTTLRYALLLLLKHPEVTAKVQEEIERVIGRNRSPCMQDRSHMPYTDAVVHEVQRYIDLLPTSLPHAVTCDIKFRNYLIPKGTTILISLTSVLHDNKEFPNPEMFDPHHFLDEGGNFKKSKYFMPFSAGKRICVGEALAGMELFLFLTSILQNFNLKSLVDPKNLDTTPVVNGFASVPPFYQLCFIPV
Description: as §1

| Structure (SMILES) | inhibition at 10 μM (CYP 1A2) | inhibition at 10 μM (CYP 2C8) | inhibition at 10 μM (CYP 2D6) | inhibition at 10 μM (CYP 3A4) | IC50 [1] | inhibition at 10 μM (CYP 2C19) | inhibition at 10 μM (CYP 2C9) |
| --- | --- | --- | --- | --- | --- | --- | --- |
| CO/C(=N\c1cc(C)ccn1)c1ccc(-c2nn(C3CC4CN(C(=O)/C=C/CN(C)C)CC4C3)c3ncnc(N)c23)cc1 (centres unmarked) [Compound 50, (Z)-methyl 4-(4-amino-1-(2-((E)-4-(dimethylamino)but-2-enoyl)octahydrocyclopenta[c]pyrrol-5-yl)-1H-pyrazolo[3,4-d]pyrimidin-3-yl)-N-(4-methylpyridin-2-yl) benzimidate] | < 50% | < 50% | > 50% | > 50% | 19 nM | < 50% | < 50% |
| N#C/C(=C\C1CC1)C(=O)N1CC2CC(n3nc(-c4ccc(Oc5ccccc5)cc4)c4c(N)ncnc43)CC2C1 (centres unmarked) [Compound 28, (E)-2-(5-(4-amino-3-(4-phenoxyphenyl)-1H-pyrazolo[3,4-d]pyrimidin-1-yl)octahydrocyclopenta[c]pyrrole-2-carbonyl)-3-cyclopropylacrylonitrile] | < 50% | < 50% | < 50% | > 50% | 16 nM | < 50% | > 50% |
| C=CC(=O)N1CC2CC(n3nc(-c4ccc5nc(OC)sc5c4)c4c(N)ncnc43)CC2C1 (centres unmarked) [Compound 10, 1-(5-(4-amino-3-(2-methoxybenzo[d]thiazol-6-yl)-1H-pyrazolo[3,4-d]pyrimidin-1-yl)hexahydrocyclopenta[c]pyrrol-2(1H)-yl)prop-2-en-1-one] | < 50% | > 50% | > 50% | > 50% | 25 nM | < 50% | < 50% |
| C=CC(=O)N1CC2CC(n3nc(-c4ccc5c(c4)CCS5)c4c(N)ncnc43)CC2C1 (centres unmarked) [Compound 7, 1-(5-(4-amino-3-(2,3-dihydrobenzo[b]thiophen-5-yl)-1H-pyrazolo [3,4-d]pyrimidin-1-yl)hexahydrocyclopenta[c]pyrrol-2(1H)-yl)prop-2-en-1-one] | < 50% | < 50% | < 50% | > 50% | 6 nM | < 50% | > 50% |
| C=CC(=O)N1CC2CC(n3nc(-c4ccc5ncsc5c4)c4c(N)ncnc43)CC2C1 (centres unmarked) [Compound 2, 1-(5-(4-amino-3-(benzo[d]thiazol-6-yl)-1H-pyrazolo[3,4-d]pyrimidin-1-yl)hexahydrocyclopenta[c]pyrrol-2(1H)-yl)prop-2-en-1-one] | < 50% | < 50% | < 50% | < 50% | 1.1 nM | < 50% | < 50% |
| C=CC(=O)N1CC2CC(n3nc(-c4ccc5c(c4)oc4ccccc45)c4c(N)ncnc43)CC2C1 (centres unmarked) [Compound 8, 1-(5-(4-amino-3-(dibenzo[b,d]furan-3-yl)-1H-pyrazolo[3,4-d]pyrimidin-1-yl)hexahydrocyclopenta[c]pyrrol-2(1H)-yl)prop-2-en-1-one] | < 50% | < 50% | < 50% | < 50% | 4 nM | > 50% | < 50% |

Next, values leading:

| inhibition at 10 μM (CYP 1A2) | inhibition at 10 μM (CYP 2C8) | inhibition at 10 μM (CYP 2D6) | inhibition at 10 μM (CYP 3A4) | IC50 [1] | inhibition at 10 μM (CYP 2C19) | inhibition at 10 μM (CYP 2C9) | Structure (SMILES) |
| --- | --- | --- | --- | --- | --- | --- | --- |
| < 50% | < 50% | < 50% | < 50% | 1.2 nM | < 50% | < 50% | C=CC(=O)N1CC2CC(n3nc(-c4ccc(NC(=O)c5cnccn5)cc4)c4c(N)ncnc43)CC2C1 (centres unmarked) [Compound 35, N-(4-(1-(2-acryloyloctahydrocyclopenta[c]pyrrol-5-yl)-4-amino-1H-pyrazolo[3,4-d]pyrimidin-3-yl)phenyl)pyrazine-2-carb oxamide] |
| < 50% | > 50% | < 50% | > 50% | 28 nM | < 50% | > 50% | C=CC(=O)N1CC2CC(n3nc(-c4ccc5nc(NC(C)=O)sc5c4)c4c(N)ncnc43)CC2C1 (centres unmarked) [Compound 9, N-(6-(1-(2-acryloyloctahydrocyclopenta[c]pyrrol-5-yl)-4-amino-1H-pyrazolo [3,4-d]pyrimidin-3-yl)benzo[d]thiazol-2-yl)acetamide] |
| < 50% | < 50% | < 50% | < 50% | 1.8 nM | > 50% | < 50% | C=CC(=O)N1CC2CC(n3nc(-c4ccc(C(=O)Nc5ccccn5)cc4)c4c(N)ncnc43)CC2C1 (centres unmarked) [Compound 13, 4-(1-(2-acryloyloctahydrocyclopenta[c]pyrrol-5-yl)-4-amino-1H-pyrazolo[3,4-d]pyrimidin-3-yl)-N-(pyridin-2-yl)benzamide] |
| < 50% | < 50% | < 50% | < 50% | 2 nM | < 50% | < 50% | C=CC(=O)N1CC2CC(n3nc(-c4ccc(Oc5ccccn5)cc4)c4c(N)ncnc43)CC2C1 (centres unmarked) [Compound 43, 1-(5-(4-amino-3-(4-(pyridin-2-yloxy)phenyl)-1H-pyrazolo[3,4-d]pyrimidin-1-yl)hexahydrocyclopenta[c]pyrrol-2(1H)-yl)prop-2-en-1-one] |
| > 50% | < 50% | < 50% | < 50% | 50 nM | < 50% | < 50% | C=CC(=O)N1CC2CC(n3nc(-c4ccc(-c5cnn(C)c5)cc4)c4c(N)ncnc43)CC2C1 (centres unmarked) [Compound 21, 1-(5-(4-amino-3-(4-(1-methyl-1H-pyrazol-4-yl)phenyl)-1H-pyrazolo [3,4-d]pyrimidin-1-yl)hexahydrocyclopenta[c]pyrrol-2(1H)-yl)prop-2-en-1-one] |
